# Assay results: PubChem BioAssay (NCI)
# Where “and” joins values, the source holds several entries; their conditions need not be identical. Equal entries are not always repeated.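 In this assay, cells in 96-well plates receive the compound at five concentrations for 48 hours. Endpoints are linearly interpolated between the surrounding concentrations. GI50 = concentration required for 50% inhibition of growth. At the TGI there is no net growth.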
# Columns and labels:
# Assay in all cases: NCI tumour cell line growth inhibition, 48 h
# [1] = system: COLO 205 colon
# [2] = system: EKVX NSCLC
# [3] = system: HT29 colon
# [4] = system: RPMI-8226 leukemia
# [5] = system: SK-MEL-5 melanoma
# [6] = system: HCC-2998 colon
# [7] = system: HL-60(TB) leukemia
# [8] = system: NCI/ADR-RES ovarian
# [9] = system: PC-3 prostate
# [10] = system: T-47D breast
SMILES,TGI [1],TGI [2],TGI [3],TGI [4],TGI [5],GI50 [1],GI50 [2],GI50 [6],TGI [6],GI50 [7],TGI [7],GI50 [3],GI50 [8],TGI [8],GI50 [9],TGI [9],GI50 [5],GI50 [10],TGI [10],GI50 [4]
Nc1nc(N)c(-c2ccccc2)c(C(=O)Nc2ccccc2)n1,> 100 µM,> 100 µM,> 100 µM,> 100 µM,> 100 µM,,,,,,,,,,,,,,,
CCCCCCn1c(-c2ccc(C(=O)O/N=C(\N)c3ccc4ccccc4c3)cc2)nc(-c2ccccc2)c1-c1ccccc1,> 100 µM,> 100 µM,> 100 µM,,> 100 µM,> 100 µM,6.73 µM,> 100 µM,> 100 µM,1.33 µM,> 100 µM,> 100 µM,3.02 µM,> 100 µM,7.32 µM,> 100 µM,> 100 µM,4.99 µM,> 100 µM,
C[C@]12CC[C@@H]3c4cc(O)c(O)cc4CC[C@H]3[C@@H]1CC[C@@H]2O,> 73.3 µM,,61.3 µM,30.3 µM,16.1 µM,28.9 µM,,11.2 µM,41.8 µM,2.33 µM,24.7 µM,27.2 µM,1.3 µM,> 45.4 µM,10.5 µM,> 100 µM,3.54 µM,7.73 µM,27.7 µM,3.99 µM
CCC(O)C1Cc2c(C)cc3c(c2O1)C(=O)c1ccccc1C3=O (configuration not stated),33.1 µM,> 100 µM,> 100 µM,68 µM,> 100 µM,,,,> 100 µM,,51.7 µM,,,,,,,,,
CCCCNC(=O)C1C(=O)N(CCCC)C(=O)/C1=N\N (configuration not stated),> 100 µM,> 100 µM,> 100 µM,> 100 µM,> 100 µM,,,,> 100 µM,,,,,,,,,,,
C=C1C(=O)O[C@H]2[C@H]1CC/C(C=Nc1c(N)cc(C(F)(F)F)cc1C(F)(F)F)=C\CC[C@@]1(C)O[C@@H]21,3.04 µM,,3.1 µM,3.26 µM,2.67 µM,1.35 µM,,1.69 µM,3.3 µM,0.801 µM,27.2 µM,1.13 µM,2 µM,5.75 µM,1.54 µM,4.4 µM,1.35 µM,0.55 µM,2.64 µM,0.441 µM
NC(N)=NC(N)=Nc1cnccn1,> 100 µM,> 100 µM,> 100 µM,,> 100 µM,,,,> 100 µM,,> 100 µM,,,> 100 µM,,> 100 µM,,,> 100 µM,
COC(=O)c1ccccc1N1C(=O)Cc2ccccc2C1=O,> 100 µM,> 100 µM,> 100 µM,> 100 µM,> 100 µM,,,,> 100 µM,,,,,,,,,,,
COc1ccc2c(c1)[nH]c(=O)c1c3ccccc3cn21,1.16 µM,19.1 µM,,1.4 µM and 0.4 µM,1.17 µM and 0.728 µM,0.0412 µM,0.0907 µM and < 0.0478 µM,0.0183 µM,0.0492 µM,0.0114 µM,0.0607 µM,0.034 µM,0.0213 µM,0.0575 µM,0.0368 µM,2.55 µM and 3.04 µM,0.0282 µM,,,0.0366 µM
Cc1ccc2c(c1)c(Sc1ccc(C(=O)NO)cc1)c1n2CN(C)CC1,4.11 µM,,8.38 µM,9.86 µM,6.27 µM,1.82 µM,,1.64 µM,3.67 µM,2.35 µM,6.4 µM,2.53 µM,3.88 µM,19 µM,1.5 µM,3.77 µM,2.23 µM,1.53 µM,5.45 µM,1.1 µM
O=c1[nH]c(=O)c2cc3cc(C4CC(O)C(CO)O4)ccc3cc2[nH]1 (configuration not stated),> 100 µM,> 100 µM,> 100 µM,> 100 µM,> 100 µM,> 100 µM,> 100 µM,> 100 µM,> 100 µM,,,> 100 µM,> 100 µM,> 100 µM,> 100 µM,> 100 µM,> 100 µM,> 100 µM,> 100 µM,> 100 µM
Cc1ccc(NC(=O)c2cc3ccccc3c(N=Nc3cc(S(=O)(=O)O)ccc3O)c2O)c(C)c1,> 100 µM,> 100 µM,58.3 µM,> 100 µM,> 100 µM,,,,,,,,,> 100 µM,,> 100 µM,,,> 100 µM,
NC1CCCCC1N.O=[Se]([O-])[O-].[Pt+4] (configuration not stated),17.5 µM,> 100 µM,17.5 µM,> 37.1 µM,,1.19 µM,> 35.2 µM,2.98 µM,11.1 µM,0.315 µM,> 28.9 µM,0.169 µM,,,,,0.713 µM,,,< 0.0336 µM
CCOC(=O)NC/C=C/COC1CCCCO1 (configuration not stated),> 100 µM,,,> 100 µM,> 100 µM,,,,> 100 µM,,> 100 µM,,,,,,,,,
COc1ccc2c(O)c(/C=C3\N=Nc4ccccc43)oc2c1C[C@@H]1CCNC[C@H]1F,5.05 µM,25.5 µM,11 µM,30.5 µM,,1.88 µM,12.2 µM,,,16 µM,37.8 µM,2.7 µM,10.5 µM,25.9 µM,3.26 µM,15.4 µM,,18.5 µM,40.8 µM,7.05 µM
COc1ccc2c(c1)oc(=O)c1cc(OC)ccc12,> 100 µM,> 100 µM,> 100 µM,> 100 µM,> 100 µM,> 100 µM,8.99 µM,> 100 µM,> 100 µM,,,> 100 µM,> 100 µM,> 100 µM,> 100 µM,> 100 µM,65.2 µM,> 100 µM,> 100 µM,> 100 µM
CC(N)(/C=C/c1ccccc1)C(=O)O (configuration not stated),> 100 µM,> 100 µM,> 100 µM,> 100 µM,> 100 µM,,,,,,> 100 µM,,,> 100 µM,,> 100 µM,,,,
COc1ccc(Sc2nc3cc(N)cc(N)c3nc2-c2ccccc2)cc1,> 100 µM,,,84.4 µM,> 100 µM,19.3 µM,,,,4.25 µM,> 100 µM,,> 100 µM,> 100 µM,6.39 µM,> 100 µM,24 µM,> 100 µM,> 100 µM,3.96 µM
